Test results reported in patent US20260098008A1, “COVALENT, CHEMOGENETIC ACTIVATORS FOR K2P POTASSIUM CHANNELS AND USES THEREOF” (THE REGENTS OF THE UNIVERSITY OF CALIFORNIA, priority 2022, published 2026).
Residue numbers refer to the chain shown, from its start.

Legend:
Assay type in all cases: cell-based
G171F K2P2.1 (TREK-1) = target: T1, G171F K2P2.1 (TREK-1) (Mus musculus, UniProt P97438, G186F); assay: TEVC in Xenopus oocytes, attenuated channels; conditions: 20 μM; sequential addition of ML335, CAT335, BL-1249; 0 mV
T1 construct: expressed in transfected cells; host or cells: Xenopus laevis oocytes injected with mRNA
T1 sequence (P97438 1-411 isoform P97438-2 G171F): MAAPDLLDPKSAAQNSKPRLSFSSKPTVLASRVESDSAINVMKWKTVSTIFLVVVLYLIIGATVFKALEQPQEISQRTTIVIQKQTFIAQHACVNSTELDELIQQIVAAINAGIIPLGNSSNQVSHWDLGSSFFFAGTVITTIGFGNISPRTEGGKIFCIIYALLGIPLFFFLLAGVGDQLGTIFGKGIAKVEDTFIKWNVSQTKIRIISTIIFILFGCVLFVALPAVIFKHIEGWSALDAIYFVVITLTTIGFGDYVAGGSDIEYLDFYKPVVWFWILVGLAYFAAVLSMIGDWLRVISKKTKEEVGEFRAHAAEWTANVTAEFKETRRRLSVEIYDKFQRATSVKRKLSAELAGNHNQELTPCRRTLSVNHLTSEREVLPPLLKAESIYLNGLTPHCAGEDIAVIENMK
Source text: (§1) Mouse K2P2.1 (TREK-1) (Genbank accession number: NP_034737.2), mouse K2P10.1 (TREK-2) (NM_001316665.1), mouse K2P4.1 (TRAAK) (NM_008431.3), human K2P4.1 (TRAAK) (NM_033310.2) and mouse K2P18.1(TRESK) (NM_207261.3) were used for this study. Point mutations were introduced by site-directed mutagenesis using custom primers and confirmed by sequencing before use. For studies using Xenopus oocytes, K2P channels were subcloned into a previously reported pGEMHE/pMO vector (46). For expression in HEK293 cells, mouse K2P2.1 (TREK-1) and mutants were expressed from a previously described pIRES2-EGFP vector in HEK293 cells (46,47). K2P2.1 (TREK-1) tandems were constructed by connecting the open reading frames for the individual subunits with a linker encoding the […] (SEQ ID NO: 19) sequence. Tandems used for HEK293 cells included an N-terminal HA tag ([…] (SEQ ID NO: 20)) on the first subunit.
(§2) Xenopus laevis oocytes were harvested according to UCSF IACUC Protocol AN129690 and digested using collagenase (Worthington Biochemical Corporation, #LS004183, 0.8-1.0 mg/mL) in Ca^21-free ND96 (96 mM NaCl, 2 mM KCl, 3.8 mM MgCl2, 5 mM HEPES pH 7.4) immediately post-harvest, as previously reported (31,33). Oocytes were maintained at 18° C. in ND96 (96 mM NaCl, 2 mM KCl, 1.8 mM CaCl2, 2 mM MgCl2, 5 mM HEPES pH 7.4) supplemented with antibiotics (100 units mL^−1 penicillin, 100 μg mL^−1 streptomycin, 50 μg mL^−1 gentimycin) and used for experiments within one week of harvest.
(§3) Defolliculated stage V-VI oocytes were microinjected with 0.5-36 ng mRNA and currents were recorded within 16-48 h hours of injection.
(§4) For recordings, oocytes were impaled with borosilicate recording microelectrodes (0.4-2.0 MΩ resistance) backfilled with 3 M KCl and were subjected to constant perfusion of ND96 at a rate of 3 ml min^−1. Recording solutions containing K2P activators were prepared immediately prior to use from DMSO stocks (20-100 mM), with final DMSO concentrations of 0.1%. Currents were evoked from a −80 mV holding potential followed by a 300 ms ramp from −150 mV to +50 mV. Data were recorded using a GeneClamp 500B amplifier (MDS Analytical Technologies) controlled by pCLAMP8 software (Molecular Devices), and digitized at 1 kHz using Digidata 1332 Å digitizer (MDS Analytical Technologies). For each recording, control solution (ND96) was perfused over a single oocyte until current was stable before switching to solutions containing the test compounds at various concentrations. Representative traces and dose response plots were generated in GraphPad Prism 9.

A286F K2P2.1 (TREK-1) = target: T2, A286F K2P2.1 (TREK-1) (Mus musculus, UniProt P97438, A301F); assay: TEVC in Xenopus oocytes, attenuated channels; conditions: 20 μM; sequential addition of ML335, CAT335, BL-1249; 0 mV
T2 construct: expressed in transfected cells; host or cells: Xenopus laevis oocytes injected with mRNA
T2 sequence (P97438 1-411 isoform P97438-2 A286F): T1 sequence (P97438 1-411 isoform P97438-2 G171F) with F171G, A286F
Source text: as §1, §2, §3, §4

[1] = target: T3, CG*-WT tandem K2P2.1 (TREK-1) (Mus musculus, UniProt P97438, S146C); assay: TEVC in Xenopus oocytes, tandem channels; conditions: 20 μM; for Fold-activation (I activator/I control): sequential application, Xenopus oocytes
T3 construct: expressed in transfected cells; host or cells: Xenopus laevis oocytes injected with mRNA
T3 sequence (P97438 1-411 isoform P97438-2 S131C): T1 sequence (P97438 1-411 isoform P97438-2 G171F) with S131C, F171G
T3 sequence (P97438 1-411 isoform P97438-2): T1 sequence (P97438 1-411 isoform P97438-2 G171F) with F171G
Source text: as §1, §2, §3, §4

Compound: c1ccc(-c2nn[nH]n2)c(Nc2cccc3c2CCCC3)c1 [BL-1249, reference compound]
- Fold-activation (I activator/I control) (G171F K2P2.1 (TREK-1)): 3.8±0.5 fold
- Fold-activation (I activator/I control) (A286F K2P2.1 (TREK-1)): 19.4±1.3 fold

Compound: O=C(NCc1ccc(Cl)cc1Cl)c1ccc(N2C(=O)C=CC2=O)cc1 [CAT335]
- Fold-activation (I activator/I control) (G171F K2P2.1 (TREK-1)): insensitive
- Fold-activation (I activator/I control) (A286F K2P2.1 (TREK-1)): insensitive
- Fold-activation relative to activation of the CG*-CG* homodimer [1]: 60-80%
- Fold-activation (I activator/I control) [1]: 8.9 ± 1.1 fold

Compound: CS(=O)(=O)Nc1ccc(C(=O)NCc2ccc(Cl)cc2Cl)cc1 [ML335, reference compound]
- Fold-activation (I activator/I control) (G171F K2P2.1 (TREK-1)): 1-1.8 fold
- Fold-activation (I activator/I control) (A286F K2P2.1 (TREK-1)): 1-1.8 fold
- Fold-activation (I activator/I control) [1]: 5.0±0.5 fold
